Data reported in patent publication US7354588B1, “Functional derivatives of ICAM-1 with altered ability to bind LFA-1 or HRV” (Dana Farber Cancer Institute, priority 1987, dated 2008).
Residue numbers refer to the chain shown, from its start. *1 amine or outer side, *2 acyl side, *3 side chain or, on linkers, in order; H or OH if unused. Where a SMILES comes first, the peptide text is derived from it. Bridges are numbered along the chain shown (N, C = ends). Roman numbers before positions name the chains, in order. [ ]: non-standard residue; d: D form. Actinocin(9to1) = Cc1c2oc3c(C)ccc(C(=O)[*:1])c3nc-2c(C(=O)[*:2])c(N)c1=O; NMeV = CN[C@H](C(=O)O)C(C)C; Sar = CNCC(=O)O

B1: R166PQ/EPA (protein, UniProt P05362 28-532, looked up, variant R166E Q168A)
Intercellular adhesion …: QTSVSPSKVILPRGGSVLVTCSTSCDQPKLLGIETPLPKKELLLPGNNRKVYELSNVQEDSQPMCYSNCPDGQSTAKTFLTVYWTPERVELAPLPSWQPVGKNLTLRCQVEGGAPRANLTVVLLRGEKELKREPAVGEPAEVTTTVLVRRDHHGANFSCRTELDLEPAGLELFENTSAPYQLQTFVLPATPPQLVSPRVLEVDTQGTVVCSLDGLFPVSEAQVHLALGDQRLNPTVTYGNDSFSAKASVSVTAEDEGTQRLTCAVILGNQSQETLQTVTIYSFPAPNVILTKPEVSEGTEVTVKCEAHPRAKVTLNGVPAQPLGPRAQLLLKATPEDNGRSFSCSATLEVAGQLIHKNQTRELRVLYGPRLDERDCPGNWTWPENSQQTPMCQAWGNPLPELKCLKDGTFPLPIGESVTVTRDLEGTYLCRARSTQGEVTRKVTVNVLSPRYEIVIITVVAAAVIMGTAGLSTYLYNRQRKIKKYRLQQAQKGTPMKPNTQATPP
B2: D213GL/HGV (protein, UniProt P05362 28-532, looked up, variant D213H L215V)
Intercellular adhesion …: B1 Intercellular adhesion … with E166R, A168Q, D213H, L215V

Assays:
[1] = tested on: ICAM-1 expression on human dermal fibroblasts; test: ^125I goat anti-mouse IgG binding assay, anti-ICAM-1, dermal fibroblasts; assay type: cell-based
Description: (§1) The kinetics of interleukin 1 and gamma interferon effects on ICAM-1 expression on dermal fibroblasts were determined using the ^125I goat anti-mouse IgG binding assay of Dustin, M. L. et al. (J. Immunol. 137:245-254 (1986); which reference is herein incorporated by reference). To perform this binding assay, human dermal fibroblasts were grown in a 96-well microtiter plate to a density of 2−8×10^4 cells/well (0.32 cm^2). The cells were washed twice with RPMI 1640 medium supplemented as described in Example 1. The cells were additionally washed once with Hanks Balanced Salt Solution (HBSS), 10 mM HEPES, 0.05% NaN3 and 10% heat-inactivated fetal bovine serum. Washing with this binding buffer was done at 4° C. To each well was added 50 μl of the above-described binding buffer and 50 μl of the appropriate hybridoma supernatant with X63 and W6/32 as the negative and positive controls, respectively. After incubation for 30 minutes at 4° C., with gentle agitation, the wells were washed twice with binding buffer, and the second antibody ^125I-goat anti-mouse IgG, was added at 50 nCi in 100 μl. The ^125I-goat anti-mouse antibody was prepared by using Iodogen (Pierce) according to the method of Fraker, P. J. et al. (Biochem. Biophys. Res. Commun. 80:849 (1978)). After 30 minutes at 4° C., the wells were washed twice with 200 μl of binding buffer and the cell layer was solubilized by adding 100 μl of 0.1 N NaOH. This and a 100 μl wash were counted in a Beckman 5500 gamma counter. The specific counts per minute bound was calculated as [cpm with monoclonal antibody]-[cpm with X63]. All steps, including induction with specific reagents, were carried out in quadruplicate.

[2] = tested on: HLA-A,B,C expression on human dermal fibroblasts; test: ^125I goat anti-mouse IgG binding assay, anti-HLA-A,B,C, dermal fibroblasts; assay type: cell-based
Description: as §1

[3] = tested on: ICAM-1 expression on human umbilical vein endothelial cells (HUVEC); test: Radioimmune assay of ICAM-1 expression with ^125I RR1/1, HUVEC; assay type: cell-based; conditions: for ^125I Specifically bound (CPM), HUVEC / fold of control ICAM-1 expression, HUVEC: 16 hr; for ^125I Specifically bound (CPM), HUVEC: rIL-1 beta 100 ng/ml, rIL-1 alpha 50 ng/ml, rTNF alpha 50 ng/ml, LPS 10 μg/ml, rIFN gamma 10 ng/ml, polymyxin B 10 μg/ml, control 603 ± 11; for fold of control ICAM-1 expression, HUVEC: same concentrations as CPM; for increase of ICAM-1 expression on HUVEC: IL-1 beta 100 ng/ml, rTNF 50 ng/ml, Interferon-gamma 10,000 U/ml
Description: (§2) In order to measure ICAM-1 expression, a radioimmune assay was developed. In this assay, purified RR1/1 was iodinated using iodogen to a specific activity of 10 μCi/μg. Endothelial cells were grown in 96 well plates and treated as described for each experiment. The plates were cooled at 4° C. by placing in a cold room for 0.5-1 hr, not immediately on ice. The monolayers were washed 3× with cold complete media and then incubated 30 m at 4° C. with ^125I RR1/1. The monolayers were then washed 3× with complete media. The bound 125, was released using 0.1 N NaOH and counted. The specific activity of the ^125I RR1/1 was adjusted using unlabeled RR1/1 to obtain a linear signal over the range of antigen densities encountered in this study. Non-specific binding was determined in the presence of a thousand fold excess of unlabeled RR1/1 and was subtracted from total binding to yield the specific binding.
(§3) Upregulation of ICAM-1 expression on HVEC and HSVEC-HUVEC or HSVEC were seeded into 96 well plates at 1:3 from a confluent monolayer and allowed to grow to confluence. Cells were then treated with the indicated materials or media for 16 hr and the RIA done as in methods. All points were done in quadruplicate.

[4] = tested on: ICAM-1 expression on human saphenous vein endothelial cells (HSVEC); test: Radioimmune assay of ICAM-1 expression with ^125I RR1/1, HSVEC; assay type: cell-based; conditions: for ^125I Specifically bound (CPM), HSVEC / fold of control ICAM-1 expression, HSVEC: 16 hr; for ^125I Specifically bound (CPM), HSVEC: rIL-1 beta 100 ng/ml, rTNF alpha 50 ng/ml, LPS 10 μg/ml, rIFN gamma 10 ng/ml, control 1132 ± 31; for fold of control ICAM-1 expression, HSVEC: same concentrations as CPM; for increase of ICAM-1 expression on HSVEC: IL-1 beta 100 ng/ml, rTNF 50 ng/ml, Interferon-gamma 10,000 U/ml
Description: as §2, §3

LFA-1 = biological target: T1, LFA-1 (Homo sapiens, UniProt P05107+P20701); test: Adherence of COS cells expressing ICAM-1 or ICAM-1 mutants to plastic-bound purified LFA-1; assay type: cell-based; conditions: COS cells expressing ICAM-1 mutant adhering to LFA-1 coated plastic; normalized for percent of cells expressing mutant and for wild type binding; mean
T1 construct: endogenous in cells
T1 sequence (P20701 26-1170): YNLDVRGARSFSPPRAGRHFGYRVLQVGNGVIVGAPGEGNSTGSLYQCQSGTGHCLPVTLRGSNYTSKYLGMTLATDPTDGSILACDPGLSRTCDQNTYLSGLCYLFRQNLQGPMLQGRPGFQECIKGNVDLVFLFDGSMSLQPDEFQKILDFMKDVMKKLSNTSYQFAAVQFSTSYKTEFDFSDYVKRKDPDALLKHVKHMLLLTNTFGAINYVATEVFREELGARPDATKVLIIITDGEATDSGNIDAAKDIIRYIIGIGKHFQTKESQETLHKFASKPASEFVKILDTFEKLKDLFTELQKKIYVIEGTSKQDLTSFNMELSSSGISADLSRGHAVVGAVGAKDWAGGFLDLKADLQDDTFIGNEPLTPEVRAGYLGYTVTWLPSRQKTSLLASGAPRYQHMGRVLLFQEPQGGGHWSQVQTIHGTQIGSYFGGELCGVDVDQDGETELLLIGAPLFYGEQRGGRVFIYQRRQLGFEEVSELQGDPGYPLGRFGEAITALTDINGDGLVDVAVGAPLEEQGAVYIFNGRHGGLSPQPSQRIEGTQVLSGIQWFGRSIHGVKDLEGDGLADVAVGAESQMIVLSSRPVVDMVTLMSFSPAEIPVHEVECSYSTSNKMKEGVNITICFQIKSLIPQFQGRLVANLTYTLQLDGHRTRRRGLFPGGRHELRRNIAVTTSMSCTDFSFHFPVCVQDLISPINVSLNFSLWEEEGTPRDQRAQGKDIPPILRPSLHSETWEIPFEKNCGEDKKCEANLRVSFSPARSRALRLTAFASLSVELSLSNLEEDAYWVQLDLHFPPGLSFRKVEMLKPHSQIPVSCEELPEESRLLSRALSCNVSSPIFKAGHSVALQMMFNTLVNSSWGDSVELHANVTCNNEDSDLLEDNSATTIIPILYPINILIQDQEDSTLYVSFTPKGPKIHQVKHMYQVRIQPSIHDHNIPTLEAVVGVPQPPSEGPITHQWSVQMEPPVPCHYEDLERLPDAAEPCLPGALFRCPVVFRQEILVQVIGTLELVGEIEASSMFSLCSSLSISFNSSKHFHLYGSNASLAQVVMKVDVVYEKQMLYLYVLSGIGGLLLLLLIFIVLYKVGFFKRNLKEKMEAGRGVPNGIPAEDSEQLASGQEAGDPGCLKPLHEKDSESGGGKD
T1 sequence (P05107 23-769): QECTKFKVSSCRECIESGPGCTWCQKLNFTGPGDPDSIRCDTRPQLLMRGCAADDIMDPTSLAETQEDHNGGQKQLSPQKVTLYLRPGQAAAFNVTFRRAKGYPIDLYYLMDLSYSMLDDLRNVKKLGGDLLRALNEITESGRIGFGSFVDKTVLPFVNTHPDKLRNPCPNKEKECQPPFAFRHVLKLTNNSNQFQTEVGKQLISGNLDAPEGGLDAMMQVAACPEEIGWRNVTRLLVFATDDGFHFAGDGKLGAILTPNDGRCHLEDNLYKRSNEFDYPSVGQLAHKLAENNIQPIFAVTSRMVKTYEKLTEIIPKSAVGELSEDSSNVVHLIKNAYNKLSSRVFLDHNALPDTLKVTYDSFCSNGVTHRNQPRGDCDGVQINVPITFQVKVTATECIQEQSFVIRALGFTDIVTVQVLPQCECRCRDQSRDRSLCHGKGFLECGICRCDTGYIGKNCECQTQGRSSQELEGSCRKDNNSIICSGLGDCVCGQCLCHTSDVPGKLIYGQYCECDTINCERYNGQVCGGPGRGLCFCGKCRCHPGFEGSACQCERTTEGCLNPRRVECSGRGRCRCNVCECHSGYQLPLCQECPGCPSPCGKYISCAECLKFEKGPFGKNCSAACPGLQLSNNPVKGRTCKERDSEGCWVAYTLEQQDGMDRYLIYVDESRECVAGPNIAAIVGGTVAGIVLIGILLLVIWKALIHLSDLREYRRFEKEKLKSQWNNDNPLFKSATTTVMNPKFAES

HRV14 = test: Binding of [^35S]-Met labeled HRV14 to COS cells expressing ICAM-1 mutants; assay type: cell-based, human rhinovirus 14; conditions: 35S met-labeled HRV14 binding to COS cells expressing ICAM-1 mutant; normalized for percent of cells expressing mutant and for wild type binding; mean
CL203 mAb = test: Indirect immunofluorescence flow cytofluorometry: mAb CL203 binding to COS cells expressing ICAM-1 mutants (SLFI, % WT); assay type: cell-based; conditions: SLFI of CL203 for mutant normalized to wild type CL203 SLFI; level of expression
Method in brief: (§4)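 Transfected COS cells expressing ICAM-1 point mutants were stained by indirect immunofluorescence and analysed by flow cytometry. Specific linear fluorescence intensity of CL203 is expressed relative to wild-type CL203; RR1/1, R6.5 and LB-2 SLFI are expressed relative to CL203 SLFI of the same mutant.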

RR1/1 mAb = test: Indirect immunofluorescence flow cytofluorometry: mAb RR1/1 binding to COS cells expressing ICAM-1 mutants (SLFI, % CL203); assay type: cell-based; conditions: SLFI normalized to CL203 SLFI of the mutant
Method in brief: as §4

R6.5 mAb = test: Indirect immunofluorescence flow cytofluorometry: mAb R6.5 binding to COS cells expressing ICAM-1 mutants (SLFI, % CL203); assay type: cell-based; conditions: SLFI normalized to CL203 SLFI of the mutant
Method in brief: as §4

LB-2 mAb = test: Indirect immunofluorescence flow cytofluorometry: mAb LB-2 binding to COS cells expressing ICAM-1 mutants (SLFI, % CL203); assay type: cell-based; conditions: SLFI normalized to CL203 SLFI of the mutant
Method in brief: as §4

[5] = cycloheximide 20 μg/ml, actinomycin D 10 μM
[6] = cells treated with IFN-γ (10 U/ml) (18 hr), alone or plus the inhibitor named (cycloheximide 20 μg/ml, actinomycin D 10 μM)
[7] = cells treated with IFN-γ (10 U/ml) (18 hr), alone or plus the inhibitor named

Molecule	effect on interleukin 1 and gamma interferon induced ICAM-1 expression on fibroblasts [1, 5]	^125I Goat Anti-Mouse IgG Specifically Bound (cpm), anti-ICAM-1 [1, 6]	^125I Goat Anti-Mouse IgG Specifically Bound (cpm), anti-HLA-A,B,C [2, 7]	^125I Specifically bound (CPM), HUVEC [3]	fold of control ICAM-1 expression, HUVEC [3]	increase of ICAM-1 expression on HUVEC [3]	^125I Specifically bound (CPM), HSVEC [4]	fold of control ICAM-1 expression, HSVEC [4]	increase of ICAM-1 expression on HSVEC [4]	LFA-1 Binding % (LFA-1)	HRV Binding % (HRV14)	Cl203 % WT (SLFI) (CL203 mAb)	SLFI (% CL203) RR/1 (RR1/1 mAb)	SLFI (% CL203) R6.5 (R6.5 mAb)	SLFI (% CL203) LB-2 (LB-2 mAb)	other results
Cc1c2oc3c(C)ccc(C(=O)N[C@@H]4C(=O)N[C@H](C(C)C)C(=O)N5CCC[C@H]5C(=O)N(C)CC(=O)N(C)[C@@H](C(C)C)C(=O)O[C@@H]4C)c3nc-2c(C(=O)N[C@@H]2C(=O)N[C@H](C(C)C)C(=O)N3CCC[C@H]3C(=O)N(C)CC(=O)N(C)[C@@H](C(C)C)C(=O)O[C@@H]2C)c(N)c1=O [actinomycin D] (I: T[dV]P[Sar][NMeV] / II: T[dV]P[Sar][NMeV]; ester I:1-I:C, II:1-II:C; linker I:N-II:N via Actinocin(9to1))	abolish the effects	–	–	–	–	–	–	–	–	–	–	–	–	–	–	–
cycloheximide	abolish the effects	1461 ± 59 cpm	10675 ± 800 cpm	–	–	–	–	–	–	–	–	–	–	–	–	^125I Goat Anti-Mouse IgG Specifically Bound (cpm), anti-ICAM-1 ([1]; cells treated with IL 1 (10 U/ml) (4 hr), alone or plus the inhibitor named (cycloheximide 20 μg/ml, actinomycin D 10 μM, tunicamycin 2 μg/ml)): 1619 ± 381 cpm; ^125I Goat Anti-Mouse IgG Specifically Bound (cpm), anti-ICAM-1 ([1]; no cytokine, Control (4 hr) 1524 ± 140, cycloheximide 20 μg/ml, actinomycin D 10 μM, tunicamycin 2 μg/ml, mean ± SD): 1513 ± 210 cpm; ^125I Goat Anti-Mouse IgG Specifically Bound (cpm), anti-HLA-A,B,C ([2]; cells treated with IL 1 (10 U/ml) (4 hr), alone or plus the inhibitor named): 12676 ± 446 cpm; ^125I Goat Anti-Mouse IgG Specifically Bound (cpm), anti-HLA-A,B,C ([2]; no cytokine, Control (4 hr) 11928 ± 600, cycloheximide 20 μg/ml, actinomycin D 10 μM, tunicamycin 2 μg/ml, mean ± SD): 10678 ± 471 cpm
rIFN gamma: recombinant gamma interferon	–	4659 ± 109 cpm	23675 ± 500 cpm	3120 ± 308 CPM	5.2x	5.2 fold	4002 ± 664 CPM	3.5x	3.5 fold	–	–	–	–	–	–	half-life for ICAM-1 induction ([1]; human dermal fibroblasts, 10 U/ml): 3.75 h
rIL-1 beta: recombinant IL-1 beta	–	–	–	5680 ± 633 CPM	9x	9 fold	8320 ± 766 CPM	7.3x	7.3 fold	–	–	–	–	–	–	half-maximal increase of ICAM-1 expression ([3]; endothelial cells (HUVEC and HSVEC)): 15 ng/mL
B1	–	–	–	–	–	–	–	–	–	75%	25%	94 % WT	100 % CL203	109 % CL203	64 % CL203	–
B2	–	–	–	–	–	–	–	–	–	90%	99%	128 % WT	231 % CL203	175 % CL203	107 % CL203	–
